Assay results published in ChEMBL document CHEMBL2007661, “Compounds: GSK PKIS; Assays: UNC Frye lab” (2012).
“And” between values parts separate entries of the source, which are not always exact repeats. Equal values may be shown once.

How the values were obtained:
[1] = target: T1, Inhibitor of nuclear factor kappa-B kinase subunit beta (Homo sapiens) (UniProt O14920); details: at 1 µM
T1 sequence (whole entry): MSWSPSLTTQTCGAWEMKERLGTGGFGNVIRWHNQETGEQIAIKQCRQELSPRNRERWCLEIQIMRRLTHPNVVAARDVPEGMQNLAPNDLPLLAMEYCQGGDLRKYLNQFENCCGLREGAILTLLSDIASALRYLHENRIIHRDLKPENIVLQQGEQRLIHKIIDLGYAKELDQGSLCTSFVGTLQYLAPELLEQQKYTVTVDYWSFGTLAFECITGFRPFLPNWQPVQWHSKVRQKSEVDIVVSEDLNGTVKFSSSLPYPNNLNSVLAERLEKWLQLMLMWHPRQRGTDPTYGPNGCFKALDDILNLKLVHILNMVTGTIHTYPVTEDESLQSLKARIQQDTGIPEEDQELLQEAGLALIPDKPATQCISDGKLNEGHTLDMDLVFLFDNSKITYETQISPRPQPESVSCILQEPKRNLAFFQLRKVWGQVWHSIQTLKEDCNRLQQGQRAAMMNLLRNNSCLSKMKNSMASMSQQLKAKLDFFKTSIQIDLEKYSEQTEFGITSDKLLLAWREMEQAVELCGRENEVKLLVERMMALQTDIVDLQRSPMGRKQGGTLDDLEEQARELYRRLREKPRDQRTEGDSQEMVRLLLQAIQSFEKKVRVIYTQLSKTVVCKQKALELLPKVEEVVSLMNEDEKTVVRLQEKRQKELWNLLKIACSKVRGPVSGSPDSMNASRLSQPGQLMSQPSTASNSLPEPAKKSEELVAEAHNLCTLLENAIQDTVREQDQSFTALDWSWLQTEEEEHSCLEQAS

[2] = target: T2, Inhibitor of nuclear factor kappa-B kinase subunit epsilon (Homo sapiens) (UniProt Q14164); details: at 1 µM
T2 sequence (whole entry): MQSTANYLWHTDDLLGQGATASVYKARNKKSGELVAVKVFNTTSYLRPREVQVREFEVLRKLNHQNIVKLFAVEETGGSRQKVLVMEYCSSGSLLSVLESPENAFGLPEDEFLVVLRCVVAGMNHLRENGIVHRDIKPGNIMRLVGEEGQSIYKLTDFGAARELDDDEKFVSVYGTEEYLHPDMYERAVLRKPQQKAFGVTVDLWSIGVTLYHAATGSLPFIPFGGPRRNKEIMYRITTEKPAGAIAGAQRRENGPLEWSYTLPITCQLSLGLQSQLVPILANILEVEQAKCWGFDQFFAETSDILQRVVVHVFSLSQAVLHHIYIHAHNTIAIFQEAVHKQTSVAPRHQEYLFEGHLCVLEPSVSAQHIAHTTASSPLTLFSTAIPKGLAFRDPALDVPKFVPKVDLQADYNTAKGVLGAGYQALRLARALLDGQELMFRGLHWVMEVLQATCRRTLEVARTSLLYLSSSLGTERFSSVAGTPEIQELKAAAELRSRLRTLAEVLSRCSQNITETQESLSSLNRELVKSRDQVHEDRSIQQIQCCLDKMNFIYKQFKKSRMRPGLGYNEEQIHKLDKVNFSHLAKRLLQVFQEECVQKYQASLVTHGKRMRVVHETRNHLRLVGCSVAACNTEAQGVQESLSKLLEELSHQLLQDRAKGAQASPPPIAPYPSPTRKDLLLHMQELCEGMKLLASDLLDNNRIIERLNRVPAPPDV

[3] = target: T3, Tyrosine-protein kinase Mer (Homo sapiens) (UniProt Q12866); details: at 10 µM
T3 sequence (whole entry): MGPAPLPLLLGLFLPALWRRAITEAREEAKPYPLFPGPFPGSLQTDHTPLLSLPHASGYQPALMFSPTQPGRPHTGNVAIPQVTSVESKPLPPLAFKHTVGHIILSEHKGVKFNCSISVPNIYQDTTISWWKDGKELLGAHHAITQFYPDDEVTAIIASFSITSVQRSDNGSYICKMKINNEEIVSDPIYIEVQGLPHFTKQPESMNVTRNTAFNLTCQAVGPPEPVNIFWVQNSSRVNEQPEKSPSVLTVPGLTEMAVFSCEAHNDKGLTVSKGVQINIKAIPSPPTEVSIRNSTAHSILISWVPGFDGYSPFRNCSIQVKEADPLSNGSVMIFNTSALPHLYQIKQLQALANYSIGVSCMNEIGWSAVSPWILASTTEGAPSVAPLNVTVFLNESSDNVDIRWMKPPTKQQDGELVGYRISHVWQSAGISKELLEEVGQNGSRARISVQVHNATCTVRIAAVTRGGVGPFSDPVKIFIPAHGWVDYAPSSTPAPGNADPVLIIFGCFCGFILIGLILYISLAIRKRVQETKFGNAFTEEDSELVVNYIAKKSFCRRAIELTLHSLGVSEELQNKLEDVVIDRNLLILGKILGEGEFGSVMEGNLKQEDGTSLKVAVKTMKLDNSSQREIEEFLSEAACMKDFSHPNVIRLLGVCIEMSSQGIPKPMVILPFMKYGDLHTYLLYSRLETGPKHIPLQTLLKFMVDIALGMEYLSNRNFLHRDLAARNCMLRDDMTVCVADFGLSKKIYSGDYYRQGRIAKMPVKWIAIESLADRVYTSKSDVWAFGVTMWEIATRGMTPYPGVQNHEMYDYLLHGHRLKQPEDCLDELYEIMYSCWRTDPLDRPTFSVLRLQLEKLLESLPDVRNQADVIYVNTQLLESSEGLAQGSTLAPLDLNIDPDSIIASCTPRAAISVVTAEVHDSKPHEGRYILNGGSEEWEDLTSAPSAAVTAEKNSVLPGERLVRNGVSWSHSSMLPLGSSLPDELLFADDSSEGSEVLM

[4] = target: T4, Serine/threonine-protein kinase TBK1 (Homo sapiens) (UniProt Q9UHD2); details: at 1 µM
T4 sequence (whole entry): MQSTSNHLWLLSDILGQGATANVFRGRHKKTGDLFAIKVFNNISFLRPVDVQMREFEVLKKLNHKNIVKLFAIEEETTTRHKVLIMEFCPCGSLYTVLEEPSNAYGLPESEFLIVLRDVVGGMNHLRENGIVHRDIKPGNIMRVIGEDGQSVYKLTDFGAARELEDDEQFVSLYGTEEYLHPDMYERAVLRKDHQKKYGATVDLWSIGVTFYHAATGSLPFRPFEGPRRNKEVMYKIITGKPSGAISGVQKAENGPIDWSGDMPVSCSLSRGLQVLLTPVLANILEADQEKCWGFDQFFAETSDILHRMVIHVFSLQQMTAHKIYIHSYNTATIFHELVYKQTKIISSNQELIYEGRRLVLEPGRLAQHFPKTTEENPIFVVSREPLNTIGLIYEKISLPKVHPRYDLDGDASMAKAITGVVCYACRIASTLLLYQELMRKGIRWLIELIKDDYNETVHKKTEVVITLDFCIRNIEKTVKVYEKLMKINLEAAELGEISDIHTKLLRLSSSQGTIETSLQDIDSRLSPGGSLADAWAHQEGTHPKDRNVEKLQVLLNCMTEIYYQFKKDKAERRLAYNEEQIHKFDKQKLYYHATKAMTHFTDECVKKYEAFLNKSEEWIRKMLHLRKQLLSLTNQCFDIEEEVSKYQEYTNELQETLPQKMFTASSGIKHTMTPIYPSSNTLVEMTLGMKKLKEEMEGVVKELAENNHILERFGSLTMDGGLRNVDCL

[5] = target: T5, Inhibitor of nuclear factor kappa-B kinase subunit alpha (Homo sapiens) (UniProt O15111); details: at 1 µM
T5 sequence (whole entry): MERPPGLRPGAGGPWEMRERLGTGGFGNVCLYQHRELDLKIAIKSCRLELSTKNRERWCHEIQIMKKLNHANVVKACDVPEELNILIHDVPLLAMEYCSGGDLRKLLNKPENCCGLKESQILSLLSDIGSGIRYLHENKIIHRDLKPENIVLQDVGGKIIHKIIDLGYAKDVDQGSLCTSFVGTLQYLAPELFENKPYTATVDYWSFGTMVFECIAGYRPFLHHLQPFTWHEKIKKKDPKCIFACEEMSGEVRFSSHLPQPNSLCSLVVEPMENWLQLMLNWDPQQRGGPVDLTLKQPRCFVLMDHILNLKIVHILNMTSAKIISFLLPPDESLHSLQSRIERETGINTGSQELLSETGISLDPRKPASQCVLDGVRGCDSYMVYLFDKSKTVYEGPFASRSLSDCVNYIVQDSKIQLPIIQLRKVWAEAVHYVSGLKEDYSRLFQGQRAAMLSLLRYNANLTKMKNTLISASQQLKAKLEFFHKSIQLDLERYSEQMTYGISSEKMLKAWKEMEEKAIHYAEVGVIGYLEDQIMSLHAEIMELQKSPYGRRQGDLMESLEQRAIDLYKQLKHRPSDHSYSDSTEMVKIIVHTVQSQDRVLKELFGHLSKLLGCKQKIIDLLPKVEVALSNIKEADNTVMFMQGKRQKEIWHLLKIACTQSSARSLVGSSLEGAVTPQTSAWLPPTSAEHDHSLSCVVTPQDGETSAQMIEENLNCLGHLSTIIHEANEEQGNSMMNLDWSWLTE

| SMILES | inhibition [1] | inhibition [2] | inhibition [3] [%] | inhibition [4] | inhibition [5] |
| --- | --- | --- | --- | --- | --- |
| C[C@@H](Oc1cc(-n2cnc3ccc(OC4CCN(C)CC4)cc32)sc1C(N)=O)c1ccccc1Cl | -1% and -2% | 1% and 5% | -2 | 7% and 3% | – |
| c1cc(-c2cnn3nc(N4CCOCC4)ccc23)nc(NC2CC2)n1 | – | 5% and 6% | -4 | 5% and 6% | -2% and -3% |
| [O-][S+]1CCN(Cc2ccc(-c3ccc4ncnc(Nc5ccc(OCc6ccccc6)c(F)c5)c4c3)o2)CC1 | -4% and -10% | 1% | – | 5% and 2% | 5% |
| Cc1ccc(NC(=O)CC2CC2)cc1-c1ccc(C(=O)NCC2CC2)cc1 | -2% and -1% | 0% | – | -1% and 1% | 1% and 0% |
| Fc1ccc(-c2nn3ncccc3c2-c2ccnc(Nc3ccc4c(c3)OCCO4)n2)cc1 | -2% and -4% | 12% and 9% | – | 4% and -2% | – |
| Fc1cccc(COc2ccc(Nc3ncnc4cc(-c5ccc[nH]5)sc34)cc2Cl)c1 | 3% and 2% | -1% | – | 0% and -4% | 60% and 64% |
| NC(=O)c1cc(-c2ccncc2)cc(-c2ccccc2)c1N | -1% and 0% | 14% | -1 | 10% and 13% | – |
| Nc1nccc(-c2c(-c3ccc(F)cc3)ncn2C2CCNCC2)n1 | -4% and -5% | 1% [middle of 4 runs] | – | 0% [middle of 4 runs] | 4% (2×) and 5% and 3% |
| C[C@@H](Oc1cc(-n2cnc3ccc(OCC4CCN(C)CC4)cc32)sc1C(N)=O)c1ccccc1Cl | – | 3% | 55 | 6% and 8% | -10% and 3% |
| CNC(=O)c1cncc(/C=C/c2c(Cl)cccc2Cl)c1 | -3% and -2% | 0% and 1% | 3 | 0% and -1% | – |
| CCS(=O)(=O)c1ccc(OC)c(Nc2ncc(-c3cccc(F)c3)o2)c1 | – | 0% and 2% | 73 | 8% and 7% | 2% and 17% |
| O=C(Nc1n[nH]c2nc(-c3ccco3)ccc12)C1CC1 | -6% | 0% | – | 4% and 3% | 7% and 6% |
| CCn1c(-c2nonc2N)nc2cnc(Oc3cccc(NC(=O)c4ccc(OCCN5CCOCC5)cc4)c3)cc21 | 3% | 45% and 46% | 10 | 12% | – |
| COC(=O)Nc1nc2ccc(Oc3ccc(NC(=O)Nc4cc(C(F)(F)F)ccc4F)cc3)cc2s1 | -4% and -8% | -4% and -6% | – | -5% and -3% | 5% and 4% |
| Nc1ncnc2occ(-c3ccc(NC(=O)Nc4cc(C(F)(F)F)ccc4F)cc3)c12 | -7% and -4% | 12% [middle of 4 runs] | – | -1% (2×) and 2% and 1% | 2% [middle of 4 runs] |
| Clc1ccc(-c2nn3ncccc3c2-c2ccnc(Nc3ccccc3)n2)cc1 | – | 0% and 1% | -9 | -2% and -3% | 50% |
| NS(=O)(=O)c1ccc(N/C=C2\C(=O)Nc3ccc4ncsc4c32)cc1 | -4% and -5% | -8% and -9% | – | 85% and 86% | -3% and -2% |
| COc1cccc(Nc2nccc(-c3cnn4ncccc34)n2)c1 | – | 11% and 20% | 98 | 24% and 31% | 0% and 2% |
| N#Cc1cccc(Nc2nccc(-c3cnn4ncccc34)n2)c1 | -4% and 0% | 35% and 37% | – | 37% and 39% | -9% |
| CC(C)c1ccc2c(c1)NC(=O)/C2=N/Nc1ccc(S(N)(=O)=O)cc1 | – | 0% | -10 | -5% and -1% | 5% and 4% |
| CCS(=O)(=O)c1ccc(OC)c(Nc2ncc(-c3cccc(C(C)=O)c3)o2)c1 | – | 1% | 65 | 7% and 5% | -1% |
